The target of the first assay is Mcl-1 protein (UniProtKB primary accession number: Q07820) (Homo sapiens, UniProt Q07820). Briefly: Inhibition of Mcl-1 by fluorescence polarisation, Method 1. As to conditions: @ 10 uM test compound. Type of assay: binding. A digest of the protocol: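 Binding was measured as fluorescence polarisation of a fluorescein-labelled ligand (1 nM) displaced from Mcl-1 (5 nM), both final. Compounds ran as 11-point series with final DMSO at 5%.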
Sequence of Mcl-1 protein (Q07820 whole entry): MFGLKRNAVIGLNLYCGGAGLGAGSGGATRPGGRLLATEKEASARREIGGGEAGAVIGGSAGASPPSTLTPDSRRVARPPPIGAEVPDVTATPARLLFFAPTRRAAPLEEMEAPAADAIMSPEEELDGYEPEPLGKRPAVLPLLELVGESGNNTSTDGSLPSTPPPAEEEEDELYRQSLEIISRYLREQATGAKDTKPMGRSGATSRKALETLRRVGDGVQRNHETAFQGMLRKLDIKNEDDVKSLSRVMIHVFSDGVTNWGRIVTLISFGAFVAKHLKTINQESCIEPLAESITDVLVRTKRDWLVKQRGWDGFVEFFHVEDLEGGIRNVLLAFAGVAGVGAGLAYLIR
Consider `CCc1c(-c2c(-c3ccco3)sc3ncnc(O[C@H](Cc4ccccc4OC)C(=O)O)c23)ccc(OCCN2CCN(C)CC2)c1Cl` [Example 336, (2R)-2-{[(5Ra)-5-{3-chloro-2-ethyl-4-[2-(4-methylpiperazin-1-yl)ethoxy]phenyl}-6-(furan-2-yl)thieno[2,3-d]pyrimidin-4-yl]oxy}-3-(2-methoxyphenyl)propanoic acid], for which the “percentage fluorescence polarisation inhibition (Mcl-1 FP), partial inhibitors” value stood at 43.2% @ 10 uM.

Still in this assay, the particulars now being: fluorescence polarisation test; Method 2 values are underlined in the patent (underlining not visible here); read-out: IC50 (M) Mcl-1 FP.
Turning to `Cc1c(-c2c(-c3ccco3)sc3ncnc(OC(Cc4ccccc4OCc4cncn4C)C(=O)O)c23)ccc(OCCN2CCN(C)CC2)c1Cl` [Example 276, (2R)-2-{[(5Sa)-5-{3-chloro-2-methyl-4-[2-(4-methylpiperazin-1-yl)ethoxy]phenyl}-6-(furan-2-yl)thieno[2,3-d]pyrimidin-4-yl]oxy}-3-{2-[(1-methyl-1H-imidazol-5-yl)methoxy]phenyl}propanoic acid], the IC50 (in general, the point on the concentration scale where inhibition reaches its midpoint) was 6.2e-09 M.
Same read-out and setting: then `COc1ccccc1CC(Oc1ncnc2sc(-c3ccco3)c(-c3ccc(OCCN4CCN(CC(N)=O)CC4)c(Cl)c3C)c12)C(=O)O` [Example 326, (2R)-2-{[(5Sa)-5-(4-{2-[4-(2-amino-2-oxoethyl)piperazin-1-yl]ethoxy}-3-chloro-2-methylphenyl)-6-(furan-2-yl)thieno[2,3-d]pyrimidin-4-yl]oxy}-3-(2-methoxyphenyl)propanoic acid], with 7.9e-09 M; and `COc1ccccc1CC(Oc1ncnc2sc(-c3ccco3)c(-c3ccc(OCC[N+]4([O-])CC[N+](C)([O-])CC4)c(Cl)c3C)c12)C(=O)O` [Example 297, (2R)-2-{[(5Sa)-5-{3-chloro-2-methyl-4-[2-(4-methyl-1,4-dioxidopiperazin-1-yl)ethoxy]phenyl}-6-(furan-2-yl)thieno[2,3-d]pyrimidin-4-yl]oxy}-3-(2-methoxyphenyl)propanoic acid], with 6.6e-09 M.
Same read-out and setting: in the case of `CC(=O)NCc1ccccc1CC(Oc1ncnc2sc(-c3ccco3)c(-c3ccc(OCCN4CCN(C)CC4)c(Cl)c3C)c12)C(=O)O` [Example 356, (2R)-3-{2-[(acetylamino)methyl]phenyl}-2-{[(5Sa)-5-{3-chloro-2-methyl-4-[2-(4-methylpiperazin-1-yl)ethoxy]phenyl}-6-(furan-2-yl)thieno[2,3-d]pyrimidin-4-yl]oxy}propanoic acid] it was 1.1e-08 M; in that of `COc1ccccc1CC(Oc1ncnc2sc(-c3ccco3)c(-c3ccc(OC4CCCCN(C)C4)c(Cl)c3C)c12)C(=O)O` (single isomer, unassigned) [Example 300, (2R)-2-{[(5Sa)-5-{3-chloro-2-methyl-4-[(3R or S)-(1-methylazepan-3-yl)oxy]phenyl}-6-(furan-2-yl)thieno[2,3-d]pyrimidin-4-yl]oxy}-3-(2-methoxyphenyl)propanoic acid], 3.7e-08 M; in that of `CCn1nccc1COc1ccccc1CC(Oc1ncnc2sc(-c3ccc(F)cc3)c(-c3ccc(OCCN4CCN(C)CC4)c(Cl)c3C)c12)C(=O)O` [Example 76, (2R)-2-{[(5Sa)-5-{3-chloro-2-methyl-4-[2-(4-methylpiperazin-1-yl)ethoxy]phenyl}-6-(4-fluorophenyl)thieno[2,3-d]pyrimidin-4-yl]oxy}-3-{2-[(1-ethyl-1H-pyrazol-5-yl)methoxy]phenyl}propanoic acid], 1.6e-08 M.

Staying with this assay, now noted: fluorescence polarisation; Method 1, or Method 2; read-out: IC50 (M) Mcl-1 FP.
As for `Cc1c(Cl)cccc1-c1c(-c2ccco2)sc2ncnc(OC(Cc3ccccc3OCCN3CCN(C)CC3)C(=O)O)c12` [Example 667, (2S)-2-{[(5Ra)-5-(3-chloro-2-methylphenyl)-6-(furan-2-yl)thieno[2,3-d]pyrimidin-4-yl]oxy}-3-{2-[2-(4-methylpiperazin-1-yl)ethoxy]phenyl}propanoic acid], the IC50 amounted to 2.1e-06 M.
Same read-out and setting: then `Cc1c(-c2c(-c3ccc(OCc4ccn(C)n4)cc3)sc3ncnc(OC(Cc4ccccc4OCC(F)(F)F)C(=O)O)c23)ccc(OCCN2CCN(C)CC2)c1Cl` [Example 780, (2R)-2-[((5Sa)-5-{3-chloro-2-methyl-4-[2-(4-methylpiperazin-1-yl)ethoxy]phenyl}-6-{4-[(1-methyl-1H-pyrazol-3-yl)methoxy]phenyl}thieno[2,3-d]pyrimidin-4-yl)oxy]-3-[2-(2,2,2-trifluoroethoxy)phenyl]propanoic acid], with 7.26e-09 M; and `CCc1sc2ncnc(OC(Cc3ccccc3)C(=O)O)c2c1-c1cc(Cl)c(O)c(Cl)c1C` [Example 429, (2R)-2-{[(5Ra)-5-(3,5-dichloro-4-hydroxy-2-methylphenyl)-6-ethylthieno[2,3-d]pyrimidin-4-yl]oxy}-3-phenylpropanoic acid], with 5.3e-08 M.
For the compound `Cc1nc(-c2sc3ncnc(OC(Cc4ccccc4)C(=O)O)c3c2-c2ccc(OCCN3CCN(C)CC3)c(Cl)c2C)cs1` [Example 515, (2R)-2-{[(5Sa)-5-{3-chloro-2-methyl-4-[2-(4-methylpiperazin-1-yl)ethoxy]phenyl}-6-(2-methyl-1,3-thiazol-4-yl)thieno[2,3-d]pyrimidin-4-yl]oxy}-3-phenylpropanoic acid], the concentration for half-maximal inhibition (IC50) amounted to 8.4e-08 M.
On the same count and under the same terms, then `CCc1sc2ncnc(OC(Cc3ccccc3)C(=O)O)c2c1-c1cc(CN2CCN(C)CC2)c(O)c(Cl)c1C` [Example 430, (2R)-2-[((5Sa)-5-{3-chloro-4-hydroxy-2-methyl-5-[(4-methylpiperazin-1-yl)methyl]phenyl}-6-ethylthieno[2,3-d]pyrimidin-4-yl)oxy]-3-phenylpropanoic acid], with 1.4e-07 M; and `COc1ccccc1CC(Oc1ncnc2sc(C3CCCO3)c(-c3ccc(OCCN4CCN(C)CC4)c(Cl)c3C)c12)C(=O)O` (single isomer, unassigned) [Example 590, (2R)-2-{[(5Sa)-5-{3-chloro-2-methyl-4-[2-(4-methylpiperazin-1-yl)ethoxy]phenyl}-6-((2S or R)-tetrahydrofuran-2-yl)thieno[2,3-d]pyrimidin-4-yl]oxy}-3-(2-methoxyphenyl)propanoic acid], with 8.4e-08 M; and `CCc1sc2ncnc(OC(Cc3ccccc3)C(=O)O)c2c1-c1cc2nc(C)oc2c(Cl)c1C` [Example 444, (2R)-2-{[(5Sa)-5-(7-chloro-2,6-dimethyl-1,3-benzoxazol-5-yl)-6-ethylthieno[2,3-d]pyrimidin-4-yl]oxy}-3-phenylpropanoic acid], with 1.2e-08 M.
In the case of `Cc1c(-c2c(-c3ccncc3)sc3ncnc(OC(Cc4ccccc4)C(=O)O)c23)ccc(OCCN2CCN(C)CC2)c1Cl` [Example 507, (2R)-2-{[(5Sa)-5-{3-chloro-2-methyl-4-[2-(4-methylpiperazin-1-yl)ethoxy]phenyl}-6-(pyridin-4-yl)thieno[2,3-d]pyrimidin-4-yl]oxy}-3-phenylpropanoic acid], the IC50 came out at 2.2e-07 M.
For the compound `Cc1c(-c2c(-c3ccc(F)cc3)sc3ncnc(O[C@H](Cc4ccccc4OCc4ccnc(-c5ccccc5CO)n4)C(=O)O)c23)ccc(OCCN2CCN(C)CC2)c1Cl` [Example 728, (2R)-2-{[(5Sa)-5-{3-chloro-2-methyl-4-[2-(4-methylpiperazin-1-yl)ethoxy]phenyl}-6-(4-fluorophenyl)thieno[2,3-d]pyrimidin-4-yl]oxy}-3-[2-({2-[2-(hydroxymethyl)phenyl]pyrimidin-4-yl}methoxy)phenyl]propanoic acid], the IC50 is 1.18e-09 M.
The same measure, in the same setting: then `COc1ccccc1CC(Oc1ncnc2sc(-c3cccc(Oc4ccc(F)cc4)c3)c(-c3ccc(OCCN4CCN(C)CC4)c(Cl)c3C)c12)C(=O)O` [Example 556, (2R)-2-[((5Sa)-5-{3-chloro-2-methyl-4-[2-(4-methylpiperazin-1-yl)ethoxy]phenyl}-6-[3-(4-fluorophenoxy)phenyl]thieno[2,3-d]pyrimidin-4-yl)oxy]-3-(2-methoxyphenyl)propanoic acid], with 1.2e-08 M; and `CCc1sc2ncnc(OC(Cc3ccccc3)C(=O)O)c2c1-c1cc2ccoc2c(Cl)c1C` [Example 443, (2R)-2-{[(5Sa)-5-(7-chloro-6-methyl-1-benzofuran-5-yl)-6-ethylthieno[2,3-d]pyrimidin-4-yl]oxy}-3-phenylpropanoic acid], with 1.8e-08 M.

Still in this assay, the particulars now being: partial inhibitors; @ 10 uM test compound.
For the compound `CCOC(=O)[C@@H](Cc1ccccc1OCC(F)(F)F)Oc1ncnc2sc(-c3ccc(F)cc3)c(-c3ccc(OCCN(C)C)c(Cl)c3C)c12` [Example 634, ethyl (2R)-2-{[(5Sa)-5-{3-chloro-4-[2-(dimethylamino)ethoxy]-2-methylphenyl}-6-(4-fluorophenyl)thieno[2,3-d]pyrimidin-4-yl]oxy}-3-[2-(2,2,2-trifluoroethoxy)phenyl]propanoate], the “percentage fluorescence polarisation inhibition, Mcl-1 FP” value is 10.7% @ 10 uM.

The assay is the same for the next values; noted with them: partial inhibitors; @ 10 uM test compound; 10 µM.
As to `COc1ccccc1CC(Oc1ncnc2sc(C(=O)N(C)C)c(-c3ccc(OCCN4CCN(C)CC4)c(Cl)c3C)c12)C(=O)O` [Example 575, (2R)-2-{[(5Sa)-5-{3-chloro-2-methyl-4-[2-(4-methylpiperazin-1-yl)ethoxy]phenyl}-6-(dimethylcarbamoyl)thieno[2,3-d]pyrimidin-4-yl]oxy}-3-(2-methoxyphenyl)propanoic acid], the “percentage fluorescence polarisation inhibition, Mcl-1 FP” value was found to be 46.8% @ 10 uM.

Staying with this assay, now noted: test compound at 10 uM; Method 1, or Method 2 where the value is underlined (underlining not visible).
Consider `CCCCCCCCOC(=O)[C@@H](Cc1ccccc1OCc1ccnc(-c2ccccc2OC)n1)Oc1ncnc2sc(-c3ccc(F)cc3)c(-c3ccc(OC)c(Cl)c3C)c12` [Example 847, octyl (2R)-2-{[(5Sa)-5-(3-chloro-4-methoxy-2-methylphenyl)-6-(4-fluorophenyl)thieno[2,3-d]pyrimidin-4-yl]oxy}-3-(2-{[2-(2-methoxyphenyl)pyrimidin-4-yl]methoxy}phenyl)propanoate], for which the “percentage fluorescence polarisation inhibition (Mcl-1 FP), partial inhibitors” value was found to be 3.55% @ 10 uM.

(Values after patent publication US9670227B2, “Thienopyrimidine derivatives, a process for their preparation and pharmaceutical compositions containing them” (LES LABORATOIRES SERVIER, priority 2013, dated 2017).)
